Test results reported in patent US8101764B2, “MCH receptor antagonists” (Eli Lilly and Company, priority 2006, dated 2012).
pKi: −log10 of the molar value. Structures can show the parent of a compound that is named as a salt.

Key:
[1] = biological target: T1, human MCHR1 (Homo sapiens, UniProt Q99705); experiment: Inhibition of MCH-stimulated GTPγ35S binding to clone 43 membranes (functional antagonism); type: biochemical; conditions: 10 nM MCH, Kb from IC50 by modified Cheng-Prusoff
T1 construct: The full-length cDNA for human MCHR1 is cloned from a human adult brain cDNA library; expressed in transfected cells; host or cells: AV12 cells previously transfected with Gα15; membranes
T1 sequence (Q99705 whole entry): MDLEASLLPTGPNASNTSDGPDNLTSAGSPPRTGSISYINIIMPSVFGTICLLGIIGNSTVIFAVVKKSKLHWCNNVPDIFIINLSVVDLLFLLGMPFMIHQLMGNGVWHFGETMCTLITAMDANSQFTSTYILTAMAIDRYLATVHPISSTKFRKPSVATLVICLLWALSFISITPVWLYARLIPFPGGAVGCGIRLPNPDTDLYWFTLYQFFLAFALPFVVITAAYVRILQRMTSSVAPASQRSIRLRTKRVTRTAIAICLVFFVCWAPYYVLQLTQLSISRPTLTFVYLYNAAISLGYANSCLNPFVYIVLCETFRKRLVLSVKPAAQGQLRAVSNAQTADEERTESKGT
Protocol: (§1) The full-length cDNA for human MCHR1 is cloned from a human adult brain cDNA library (Edge Biosystems, Cat. 38356) by standard polymerase chain reaction (PCR) methodology employing the following primers: sense, 5′-GCCACCATGGACCT GGAAGCCTCGCTGC-3′ (SEQ ID NO:1); anti-sense, 5′-[…]-3′ (SEQ ID NO:2). The PCR reaction is performed in a final volume of 50 μL containing 5 μL of a 10× stock solution of PCR buffer, 1 μL of 10 mM dNTP mixture (200 μM final), 2 μL of 50 mM Mg(SO4) (2 mM final), 0.5 μL of 20 μM solutions of each primer (0.2 μM final), 5 μL of template cDNA containing 0.5 ng DNA, 0.5 μL of Platinum Taq High Fidelity DNA polymerase (Gibco Life Technologies) and 36 μL of H2O. PCR amplification is performed on a Perkin Elmer 9600 thermocycler. Perform denaturation for 90 sec at 94° C., and repeat an amplification sequence consisting of 94° C. for 25 sec, 55° C. for 25 sec and 72° C. for 2 mM 30 times, followed by a final elongation step at 72° C. for 10 min. […]
(§2) In order to generate cell lines stably expressing MCHR1, subclone the insert into the Xba I and Not I sites of pcDNA(+)-3.1-neomycin (Invitrogen). […] The G418-resistant colonies are further selected for MCHR1 expression by measuring MCH-stimulated Ca^2+ transients with a fluorometric imaging plate reader (FLIPR, Molecular Devices). […]

[2] = In vivo efficacy in diet-induced obese rats, oral gavage, body weight change over 3 days; conditions: 10 mg/Kg orally once a day for 3 days, diet-induced obese male Long-Evans rats
Protocol: Vehicle consisted of 10% acacia and 0.15% saccharin in water.
House animals individually in a temperature regulated room (24° C.) with a reverse 12 hour light/dark cycle (dark 10:00/22:00). Make water and food (Teklad 95217, Harlan, WI) available ad libitum. Dose compounds orally once a day before onset of dark for 3 days. Measure daily food intake and body weight change for the 3 day period. The compound of Example 5 produced an average body weight reduction of about 11 grams @ 10 mg/Kg versus vehicle control.

[3] = biological target: T1, human MCHR1; experiment: 125I-MCH competitive binding assay with clone 43 membranes; conditions: Ki from IC50 by Cheng-Prusoff
Protocol: as §1, with “H2O.” for “H2O. PCR amplification is performed on a Perkin Elmer 9600 thermocycler. Perform denaturation for 90 sec at 94° C., and repeat an amplification sequence consisting of 94° C. for 25 sec, 55° C. for 25 sec and 72° C. for 2 mM 30 times, followed by a final elongation step at 72° C. for 10 min.”
as §2
Binding of compounds to MCHR1 is assessed in a competitive binding assay employing ^125I-MCH, compound and clone 43 membranes. […] Non-specific binding is assessed in the presence of 0.1 μM unlabeled MCH. Bound ^125I-MCH is determined by placing sealed plates in a Microbeta Trilux (Perkin Elmer Life and Analytical Sciences Inc.) and counting after a 12 h delay. […]

| Kb [1] [nM] | pKi [3] | SMILES | average body weight reduction versus vehicle control [2] |
| --- | --- | --- | --- |
| ~7 | – | CN(C)[C@@H]1CCN(c2ccc(N3CCc4cc(-c5ccc(Cl)cc5)sc4C3=O)cn2)C1.Cl [Example 5, 2-(4-Chloro-phenyl)-6-[6-((R)-3-dimethylamino-pyrrolidin-1-yl)-pyridin-3-yl]-5,6-dihydro-4H-thieno[2,3-c]pyridin-7-one, hydrochloride] | about 11 grams |
| – | ~8.05 | CN(C)[C@@H]1CCN(c2ccc(-n3ccc4cc(-c5ccc(OC6CC6)cc5)sc4c3=O)cn2)C1 [Example 55, 2-(4-Cyclopropoxy-phenyl)-6-[6-(R)-(3-dimethylamino-pyrrolidin-1-yl)-pyridin-3-yl]-6H-thieno[2,3-c]pyridin-7-one, hydrochloride] | – |
